Measured values reported in patent publication US9040663B2, “Melanocortin receptor-specific peptides” (AstraZeneca AB, priority 2009, dated 2015).
Where two headings read alike, the source gives them in different places. Positions of bridges follow the written chain, without caps; N, C: chain ends. Non-standard residues stand in square brackets, D forms with d. Residues, ends and D or L forms follow the SMILES beside them. dPhe(4-CN) = N#Cc1ccc(C[C@@H](N)C(=O)O)cc1; Orn = NCCC[C@H](N)C(=O)O

How the values were obtained:
MC1-R = assay: Competitive inhibition binding assay using [I125]-NDP-α-MSH, MC1-R; settings: membranes of B-16 mouse melanoma cells (endogenous MC1-R), in some instances HEK-293 hMC1-R
Procedure: 7.1 Competitive Inhibition Assay using [I^125]-NDP-α-MSH.
A competitive inhibition binding assay was performed for exemplified peptides according to the invention using membrane homogenates prepared from HEK-293 cells that express recombinant hMC4-R, hMC3-R, or hMC5-R, and from B-16 mouse melanoma cells (containing endogenous MC1-R). In some instances, HEK-293 cells that express recombinant hMC1-R were employed. Assays were performed in 96 well GF/B Millipore multiscreen filtration plates (MAFB NOB10) pre-coated with 0.5% bovine serum albumin (Fraction V). Membrane homogenates were incubated with 0.2 nM (for hMC4-R) 0.4 nM (for MC3-R and MC5-R) or 0.1 nM (for mouse B16 MC1-R or hMC1-R) [I^125]-NDP-α-MSH (Perkin Elmer) and increasing concentrations of test peptides of the present invention in buffer containing 25 mM HEPES buffer (pH 7.5) with 100 mM NaCl, 2 mM CaCl2, 2 mM MgCl2, 0.3 mM 1,10-phenanthroline, and 0.2% bovine serum albumin. After incubation for 60 minutes at 37° C., the assay mixture was filtered and the membranes washed three times with ice-cold buffer. Filters were dried and counted in a gamma counter for bound radioactivity. […] Maximal specific binding (100%) was defined as the difference in radioactivity (cpm) bound to cell membranes in the absence and presence of 1 μM NDP-α-MSH. […] Each assay was conducted in triplicate and the actual mean values are described, with results less than 0% reported as 0%. Ki values for test peptides of the present invention were determined using Graph-Pad Prism® curve-fitting software.

hMC4-R [1] = biological target: T1, hMC4-R (Homo sapiens (Human), UniProt P32245); assay: High and low density hMC4-R functional assay (cAMP, HEK293-T-REx-MC4-R cells); type: cell-based; settings: for Emax: NDP-α-MSH = 100%, read-out: Intrinsic Activity (%)
T1 sequence (P32245 whole entry): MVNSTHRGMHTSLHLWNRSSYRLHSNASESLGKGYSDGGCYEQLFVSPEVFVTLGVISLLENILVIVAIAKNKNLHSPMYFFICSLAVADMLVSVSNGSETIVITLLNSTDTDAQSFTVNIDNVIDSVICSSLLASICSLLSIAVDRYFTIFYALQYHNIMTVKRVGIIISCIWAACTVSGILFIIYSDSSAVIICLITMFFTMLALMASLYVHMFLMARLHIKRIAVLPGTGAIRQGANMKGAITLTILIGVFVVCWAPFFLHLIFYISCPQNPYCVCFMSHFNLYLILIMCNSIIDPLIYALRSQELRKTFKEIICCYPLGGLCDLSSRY

hMC4-R [2] = biological target: T1, hMC4-R; assay: Competitive inhibition binding assay using [I125]-NDP-α-MSH, hMC4-R; settings: membranes of HEK-293 cells expressing recombinant hMC4-R, read-out: MC4-R Ki
[3] = 0.1 ng/mL Doxycycline (low density hMC4-R system)
[4] = 10 ng/mL Doxycycline (high density hMC4-R system)

Ki (MC1-R)	EC50 (hMC4-R [1]; [3])	Emax (hMC4-R [1]; [3])	Emax (hMC4-R [1]; [4])	Ki (hMC4-R [2])	EC50 (hMC4-R [1]; [4])	Compound
540 nM	18 nM	34%	96%	11 nM		CC(=O)N[C@@H](CCCNC(=N)N)C(=O)N[C@H]1CCC(=O)NCCC[C@@H](C(N)=O)NC(=O)[C@H](Cc2c[nH]c3ccccc23)NC(=O)[C@H](CCCNC(=N)N)NC(=O)[C@@H](Cc2ccccc2Cl)NC(=O)[C@H]([C@@H](C)O)NC1=O [Example 32, Ac-Arg-cyclo(Glu-Thr-D-Phe(2-Cl)-Arg-Trp-Orn)-NH2]
143 nM	1 nM	41%	98%	1 nM	0.153 nM	CC(=O)N[C@@H](CCCNC(=N)N)C(=O)N[C@H]1CCC(=O)NCCC[C@@H](C(N)=O)NC(=O)[C@H](Cc2c[nH]c3ccccc23)NC(=O)[C@H](CCCNC(=N)N)NC(=O)[C@@H](Cc2ccccc2Cl)NC(=O)[C@@H]2C[C@@H](O)CN2C1=O [Example 33, Ac-Arg-cyclo(Glu-Hyp-D-Phe(2-Cl)-Arg-Trp-Orn)-NH2]
128 nM	1 nM	79%	97%	7 nM		CC(=O)N[C@@H](CCCNC(=N)N)C(=O)N[C@H]1CCC(=O)NCCC[C@@H](C(N)=O)NC(=O)[C@H](Cc2c[nH]c3ccccc23)NC(=O)[C@H](CCCNC(=N)N)NC(=O)[C@@H](Cc2ccccc2Cl)NC(=O)[C@H](CCC(N)=O)NC1=O [Example 34, Ac-Arg-cyclo(Glu-Gln-D-Phe(2-Cl)-Arg-Trp-Orn)-NH2]
380 nM		8%	89%	6 nM	1 nM	CC(=O)N[C@@H](CCCNC(=N)N)C(=O)N[C@H]1CCC(=O)NCCC[C@@H](C(N)=O)NC(=O)[C@H](Cc2c[nH]c3ccccc23)NC(=O)[C@H](CCCNC(=N)N)NC(=O)[C@@H](Cc2cccc(Cl)c2)NC(=O)[C@H]([C@@H](C)O)NC1=O [Example 36, Ac-Arg-cyclo(Glu-Thr-D-Phe(3-Cl)-Arg-Trp-Orn)-NH2]
430 nM		6%	90%	2 nM	0.55 nM	CC(=O)N[C@@H](CCCNC(=N)N)C(=O)N[C@H]1CCC(=O)NCCC[C@@H](C(N)=O)NC(=O)[C@H](Cc2c[nH]c3ccccc23)NC(=O)[C@H](CCCNC(=N)N)NC(=O)[C@@H](Cc2cccc(Cl)c2)NC(=O)[C@@H]2C[C@@H](O)CN2C1=O [Example 37, Ac-Arg-cyclo(Glu-Hyp-D-Phe(3-Cl)-Arg-Trp-Orn)-NH2]
290 nM	2 nM	31%	97%	3 nM		CC(=O)N[C@@H](CCCNC(=N)N)C(=O)N[C@H]1CCC(=O)NCCC[C@@H](C(N)=O)NC(=O)[C@H](Cc2c[nH]c3ccccc23)NC(=O)[C@H](CCCNC(=N)N)NC(=O)[C@@H](Cc2cccc(Cl)c2)NC(=O)[C@H](CCC(N)=O)NC1=O [Example 38, Ac-Arg-cyclo(Glu-Gln-D-Phe(3-Cl)-Arg-Trp-Orn)-NH2]
1550 nM		4%	79%	4 nM	1 nM	CC(=O)N[C@@H](CCCNC(=N)N)C(=O)N[C@H]1CCC(=O)NCCC[C@@H](C(N)=O)NC(=O)[C@H](Cc2c[nH]c3ccccc23)NC(=O)[C@H](CCCNC(=N)N)NC(=O)[C@@H](Cc2ccc(C#N)cc2)NC(=O)[C@@H]2CCCN2C1=O [Example 39, Ac-Arg-cyclo(Glu-Pro-D-Phe(4-CN)-Arg-Trp-Orn)-NH2]
880 nM		8%	93%	2 nM	0.5 nM	CC(=O)N[C@@H](CCCNC(=N)N)C(=O)N[C@H]1CCC(=O)NCCC[C@@H](C(N)=O)NC(=O)[C@H](Cc2c[nH]c3ccccc23)NC(=O)[C@H](CCCNC(=N)N)NC(=O)[C@@H](Cc2ccc(C#N)cc2)NC(=O)[C@@H]2C[C@@H](O)CN2C1=O [Example 40, Ac-Arg-cyclo(Glu-Hyp-D-Phe(4-CN)-Arg-Trp-Orn)-NH2]
4300 nM		5%	84%	3 nM	0.8 nM	CC(=O)N[C@@H](CCCNC(=N)N)C(=O)N[C@H]1CCC(=O)NCCC[C@@H](C(N)=O)NC(=O)[C@H](Cc2c[nH]c3ccccc23)NC(=O)[C@H](CCCNC(=N)N)NC(=O)[C@@H](Cc2ccc(C#N)cc2)NC(=O)[C@H](C)NC1=O [Example 41, Ac-Arg-cyclo(Glu-Ala-D-Phe(4-CN)-Arg-Trp-Orn)-NH2] (Ac-REA[dPhe(4-CN)]RW[Orn]-NH2; lactam 2-7)
1620 nM	11 nM	22%	99%	18 nM		CC(=O)N[C@@H](CCCNC(=N)N)C(=O)N[C@H]1CCC(=O)NCCC[C@@H](C(N)=O)NC(=O)[C@H](Cc2c[nH]c3ccccc23)NC(=O)[C@H](CCCNC(=N)N)NC(=O)[C@@H](Cc2ccc(C#N)cc2)NC(=O)[C@H]([C@@H](C)O)NC1=O [Example 44, Ac-Arg-cyclo(Glu-Thr-D-Phe(4-CN)-Arg-Trp-Orn)-NH2]
10000 nM		12%	87%	10 nM	0.45 nM	CC(=O)N[C@@H](CCCNC(=N)N)C(=O)N[C@H]1CCC(=O)NCCC[C@@H](C(N)=O)NC(=O)[C@H](Cc2c[nH]c3ccccc23)NC(=O)[C@H](CCCNC(=N)N)NC(=O)[C@@H](Cc2ccc(C#N)cc2)NC(=O)[C@H](CO)NC1=O [Example 45, Ac-Arg-cyclo(Glu-Ser-D-Phe(4-CN)-Arg-Trp-Orn)-NH2]
25 nM	0.31 nM	36%	100%	0.3 nM	0.373 nM	CC(=O)N[C@@H](CCCNC(=N)N)C(=O)N[C@H]1CCC(=O)NCCC[C@@H](C(N)=O)NC(=O)[C@H](Cc2c[nH]c3ccccc23)NC(=O)[C@H](CCCNC(=N)N)NC(=O)[C@@H](Cc2ccccc2Cl)NC(=O)[C@H](COCc2ccccc2)NC1=O [Example 47, Ac-Arg-cyclo(Glu-Ser(Bzl)-D-Phe(2-Cl)-Arg-Trp-Orn)-NH2]
545 nM		6%	93%	15 nM	4 nM	CC(=O)N[C@@H](CCCNC(=N)N)C(=O)N[C@H]1CCC(=O)NCCC[C@@H](C(N)=O)NC(=O)[C@H](Cc2c[nH]c3ccccc23)NC(=O)[C@H](CCCNC(=N)N)NC(=O)[C@@H](Cc2ccccc2Cl)NC(=O)[C@H](Cc2cccc(C(N)=O)c2)NC1=O [Example 48, Ac-Arg-cyclo(Glu-Phe(3-C(═O)—NH2)-D-Phe(2-Cl)-D-Phe-Arg-Trp-Orn)-NH2]
8 nM	2 nM	74%	93%	8 nM	0.235 nM	CC(=O)N[C@@H](CCCNC(=N)N)C(=O)N[C@H]1CCC(=O)NCCC[C@@H](C(=O)O)NC(=O)[C@H](Cc2c[nH]c3ccccc23)NC(=O)[C@H](CCCNC(=N)N)NC(=O)[C@@H](Cc2ccccc2Cl)NC(=O)[C@H](CCCN)NC1=O [Example 49, Ac-Arg-cyclo(Glu-Orn-D-Phe(2-Cl)-Arg-Trp-Orn)-OH]
3 nM	0.64 nM	22%	95%	0.6 nM	0.4 nM	CC(=O)N[C@H](CCCNC(=N)N)C(=O)N[C@H]1CCCNC(=O)CC[C@@H](C(N)=O)NC(=O)[C@H](Cc2c[nH]c3ccccc23)NC(=O)[C@H](CCCNC(=N)N)NC(=O)[C@@H](Cc2cccc(Cl)c2)NC(=O)[C@H](Cc2c[nH]cn2)NC1=O [Example 51, Ac-D-Arg-cyclo(Orn-His-D-Phe(3-Cl)-Arg-Trp-Glu)-NH2]
6 nM	0.325 nM	31%	99%	0.6 nM	0.2 nM	CC(=O)N[C@H](CCCNC(=N)N)C(=O)N[C@H]1CCCNC(=O)CC[C@@H](C(N)=O)NC(=O)[C@H](Cc2c[nH]c3ccccc23)NC(=O)[C@H](CCCNC(=N)N)NC(=O)[C@@H](Cc2ccc(C#N)cc2)NC(=O)[C@H](Cc2c[nH]cn2)NC1=O [Example 52, Ac-D-Arg-cyclo(Orn-His-D-Phe(4-CN)-Arg-Trp-Glu)-NH2]
0.75 nM	0.13 nM	86%	90%	0.95 nM	0.13 nM	CC(=O)N[C@H](CCCNC(=N)N)C(=O)N[C@H]1CCCNC(=O)CC[C@@H](C(N)=O)NC(=O)[C@H](Cc2c[nH]c3ccccc23)NC(=O)[C@H](CCCNC(=N)N)NC(=O)[C@@H](Cc2ccccc2F)NC(=O)[C@H](Cc2c[nH]cn2)NC1=O [Example 53, Ac-D-Arg-cyclo(Orn-His-D-Phe(2-F)-Arg-Trp-Glu)-NH2]
